According to US20260217683A1, “PYRIDAZINONE HETEROCYCLIC COMPOUND MYOSIN II INHIBITOR AND USE THEREOF” (Xizang Haisco Pharmaceutical Co., Ltd., priority 2023, published 2026):
Like-named read-outs stand apart in the source and are kept apart here.

Columns and labels:
Assay type in all cases: biochemical
[1] = tested on: rabbit skeletal muscle myosin; test: Inhibition of hydrolysis of ATP by rabbit skeletal muscle myosin
Protocol: The purpose of this test was to evaluate the ability of compounds to inhibit the hydrolysis of ATP by rabbit skeletal muscle myosin. The determination method was as follows:
• Preformed F-actin filaments (#AKF99-B, Cytoskeleton) were diluted to 1 mg/mL with Reaction buffer (25 mM Tris-HCL, pH 7.5+35 mM KCl+0.1 mM EGTA+1 mM MgCl2); • Rabbit myosin (#MYO2-A, Cytoskeleton) was diluted to 0.1 mg/mL with Resuspension buffer (15 mM Tris-HCL, PH7.5+0.2 M KCl+1 mM MgCl2); • ATP (#BSA04-001, Cytoskeleton) was diluted to 3 mM working solution with 15 mM Tris-HCL (PH=7.5);
• adding 13 μL reaction buffer+12 μL F-actin to actin control wells; • adding 10 μL reaction buffer+12 μL F-actin+3 μL myosin II to positive control wells; • adding 10 μL of compound working solution+12 μL of F-actin+3 μL of myosin II to the compound wells; • adding 5 μL of ATP working solution to all test wells to start the reaction, and simultaneously adding a sample to the Pi standard wells according to the instruction (#BK054, Cytoskeleton); • gently mixing and accurately incubating at 37° C. for 60 min; • adding 70 μL of CytoPhos Reagent (#BK054, Cytoskeleton) to each well and incubating for 10 min to stop the reaction.
• the OD value of each well was detected at 650 nm using the endpoint method. The standard curve was fitted according to Pi concentration and OD value, and the Pi concentration of each test well was obtained. Inhibition (%)=(Pi positive control well-Pi test well)/Pi positive control well*100%. The Inhibition %-[…] curve was fitted with Graphpad Prism 8 software, and IC50 was calculated.

smooth muscle myosin S1 = target: T1, smooth muscle myosin S1 (Gallus gallus, UniProt P10587); test: Inhibition of hydrolysis of ATP by smooth muscle myosin S1 fragments; conditions: for inhibition at 100 µM / Smooth muscle myosin S1 (Inhibition @ 100 μM): 100 μM compound
T1 construct: purchased Cytoskeleton #CS-MYS05
Protocol: The purpose of this test was to evaluate the ability of compounds to inhibit the hydrolysis of ATP by smooth muscle myosin Si fragments. The determination method was as follows: • 1. Solution formulation • F-actin polymer: Cardiac Actin powder (#CS-AD99, Cytoskeleton) was dissolved in a buffer (5 mM Pipes-KOH solution, PH=7.0, containing 100 μM ATP and 500 μM DTT) to form a 2 mg/mL solution and the solution was left at room temperature for 30 min; then 2 mM MgCl2 and 2 mM EGTA were added and the obtained system was left at room temperature for 40 min; • Smooth muscle SI fragment (#CS-MYS05, Cytoskeleton) was diluted with a pre-cooled PM12 buffer containing 1 mM DTT (12 mM Pipes-KOH solution, PH=7.0, containing 2 mM MgCl2) to form a 0.7 mg/mL solution; • ATP (#BSA04-001, Cytoskeleton) was diluted to 5 mM working solution with 15 mM Tris-HCL (PH=7.5); • 2. […] Experimental steps: • adding 10 μL of compound working solution+6 μL of F-actin polymer+4 μL of Smooth muscle Si fragment solution to the compound wells; • adding 10 μL of PM12 buffer containing DMSO+6 μL of F-actin polymer+4 μL of Smooth muscle S1 fragment solution to positive control wells; • adding 10 μL of PM12 buffer containing DMSO+6 μL of F-actin polymer+4 μL of PM12 buffer to negative control wells; • adding […] of 5 mM ATP working solution to all test wells to start the reaction, gently mixing and incubating at 37° C. for 20 min; • after the reaction was completed, taking 6 μLL of reaction liquid, adding 24 μL of PM12 buffer for 5-fold dilution, then detecting the content of the product Pi with a phosphate kit (#BK054, Cytoskeleton); • adding a standard according to the instructions, adding 70 μL of CytoPhos Reagent (#BK054, Cytoskeleton) to all wells and incubating at room temperature for 10 min before detection. • 4. Detection: • the OD value of each well was detected at 650 nm. The standard curve was fitted according to Pi standard concentration and OD value, and the Pi concentration of each test well was obtained. Inhibition (%)=(positive control well−test well)/positive control well*100%.

cardiac myosin SII = target: T2, cardiac myosin SII (Bos taurus, UniProt Q9BE39); test: Inhibition of hydrolysis of ATP by cardiac myosin SII; conditions: 100 μM compound
T2 construct: purchased Cytoskeleton #MYO3-A
Protocol: The purpose of this test was to evaluate the ability of compounds to inhibit the hydrolysis of ATP by cardiac myosin SII. The determination method was as follows: • 1. Solution formulation: • Preformed F-actin filaments (#AKF99-B, Cytoskeleton) were diluted to 1 mg/mL with Reaction buffer (15 mM Tris-HCL. PH7.5+10 mM KCl+0.1 mM EGTA+2 mM MgCl2); • Cardiac Muscle myosin (#MYO3-A, Cytoskeleton) was diluted to 1 mg/mL with Resuspension buffer (15 mM Tris-HCL, PH7.5+0.2M KCl+1 mM MgCl2); • ATP (#BSA04-001, Cytoskeleton) was diluted to 3 mM working solution with 15 mM Tris-HCL (PH=7.5); • 2. Formulation of working solution of compounds: the final compound concentration was 100 μM • 3. Experimental steps: • adding 10 μL of compound working solution+12 μL of Preformed F-actin filaments+3 μL of Cardiac Muscle myosin to the compound wells; • adding 10 μL of reaction buffer containing DMSO+12 μL Preformed F-actin filaments +3 μL Cardiac Muscle myosin to positive control wells; • adding 10 μL of reaction buffer containing DMSO+12 μL Preformed F-actin filaments +3 μL Resuspension buffer to negative control wells; • adding 5 μL of 3 mM ATP working solution to all test wells to start the reaction, gently mixing and incubating at 37° C. for 2 h; • after the reaction was completed, taking 6 μL of reaction liquid, adding 24 μL of reaction buffer for 5-fold dilution, then detecting the content of the product Pi with a phosphate kit (#BK054, Cytoskeleton); • adding a sample to Pi standard wells according to the instructions; • adding 70 μL of CytoPhos Reagent (#BK054, Cytoskeleton) to each well and incubating at room temperature for 10 min before detection. • 4. Detection: • the OD value of each well was detected at 650 nm. The standard curve was fitted according to Pi standard concentration and OD value, and the Pi concentration of each test well was obtained. Inhibition (%)=(positive control well−test well)/positive control well*100%.

[2] = inhibition of hydrolysis of ATP, class symbols, read-out: Rabbit skeletal muscle myosin (IC50)
[3] = read-out: IC50 for inhibition of hydrolysis of ATP by rabbit skeletal muscle myosin

T2 sequence (Q9BE39 whole entry): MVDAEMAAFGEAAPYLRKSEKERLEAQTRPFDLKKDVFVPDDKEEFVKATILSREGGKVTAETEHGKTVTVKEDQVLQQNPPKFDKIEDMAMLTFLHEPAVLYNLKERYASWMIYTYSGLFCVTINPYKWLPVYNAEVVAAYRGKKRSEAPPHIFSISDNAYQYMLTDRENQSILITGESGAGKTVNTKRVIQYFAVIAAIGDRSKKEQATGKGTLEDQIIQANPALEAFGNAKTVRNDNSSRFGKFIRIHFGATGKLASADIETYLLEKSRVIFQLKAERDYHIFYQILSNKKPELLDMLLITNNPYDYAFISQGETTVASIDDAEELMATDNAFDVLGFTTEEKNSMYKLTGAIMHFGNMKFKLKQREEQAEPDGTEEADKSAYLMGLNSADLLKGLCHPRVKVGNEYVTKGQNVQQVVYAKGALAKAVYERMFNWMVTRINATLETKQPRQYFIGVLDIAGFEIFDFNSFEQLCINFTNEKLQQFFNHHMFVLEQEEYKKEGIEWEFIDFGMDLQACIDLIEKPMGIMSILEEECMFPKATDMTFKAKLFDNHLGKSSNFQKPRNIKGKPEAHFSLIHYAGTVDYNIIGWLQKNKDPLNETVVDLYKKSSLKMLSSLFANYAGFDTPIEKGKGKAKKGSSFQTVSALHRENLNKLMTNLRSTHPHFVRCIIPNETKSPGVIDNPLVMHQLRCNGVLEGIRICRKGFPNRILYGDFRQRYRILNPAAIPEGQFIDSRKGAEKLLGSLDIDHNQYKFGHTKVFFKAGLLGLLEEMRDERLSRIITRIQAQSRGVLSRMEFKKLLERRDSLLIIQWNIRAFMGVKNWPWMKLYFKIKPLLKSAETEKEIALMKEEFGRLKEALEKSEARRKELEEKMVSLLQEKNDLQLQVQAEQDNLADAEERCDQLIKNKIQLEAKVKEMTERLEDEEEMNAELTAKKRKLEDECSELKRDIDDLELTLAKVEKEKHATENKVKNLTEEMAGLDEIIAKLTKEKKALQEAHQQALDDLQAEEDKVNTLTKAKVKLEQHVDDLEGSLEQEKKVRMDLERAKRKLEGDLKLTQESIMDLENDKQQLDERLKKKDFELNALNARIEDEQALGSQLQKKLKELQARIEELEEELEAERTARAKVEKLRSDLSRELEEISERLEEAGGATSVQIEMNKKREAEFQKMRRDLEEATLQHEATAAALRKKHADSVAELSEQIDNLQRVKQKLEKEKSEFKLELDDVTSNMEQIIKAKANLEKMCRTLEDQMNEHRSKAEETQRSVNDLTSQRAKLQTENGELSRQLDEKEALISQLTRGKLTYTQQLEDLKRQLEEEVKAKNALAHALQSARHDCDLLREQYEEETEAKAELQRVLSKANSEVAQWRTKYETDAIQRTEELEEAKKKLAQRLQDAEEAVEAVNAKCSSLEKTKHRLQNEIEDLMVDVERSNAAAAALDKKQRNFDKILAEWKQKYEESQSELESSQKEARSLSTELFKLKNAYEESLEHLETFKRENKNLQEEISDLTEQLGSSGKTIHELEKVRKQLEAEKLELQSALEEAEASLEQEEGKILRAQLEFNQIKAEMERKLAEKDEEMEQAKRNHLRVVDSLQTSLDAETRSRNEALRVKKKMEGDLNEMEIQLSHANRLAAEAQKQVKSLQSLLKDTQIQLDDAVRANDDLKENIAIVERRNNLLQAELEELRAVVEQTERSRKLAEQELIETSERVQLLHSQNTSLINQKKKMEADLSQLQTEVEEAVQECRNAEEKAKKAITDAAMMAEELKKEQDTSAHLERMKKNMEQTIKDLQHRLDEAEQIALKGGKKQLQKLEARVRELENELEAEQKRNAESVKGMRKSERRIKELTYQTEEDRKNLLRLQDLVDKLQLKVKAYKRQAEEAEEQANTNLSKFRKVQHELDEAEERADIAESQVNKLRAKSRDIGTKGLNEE
T2 sequence (P85100 whole entry partner): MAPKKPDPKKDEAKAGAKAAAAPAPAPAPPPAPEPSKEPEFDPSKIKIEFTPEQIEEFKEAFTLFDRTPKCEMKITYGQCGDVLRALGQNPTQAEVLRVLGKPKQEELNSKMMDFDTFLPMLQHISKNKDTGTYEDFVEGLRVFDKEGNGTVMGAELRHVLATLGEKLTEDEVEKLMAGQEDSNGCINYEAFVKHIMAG
T2 sequence (Q3SZE5 whole entry partner): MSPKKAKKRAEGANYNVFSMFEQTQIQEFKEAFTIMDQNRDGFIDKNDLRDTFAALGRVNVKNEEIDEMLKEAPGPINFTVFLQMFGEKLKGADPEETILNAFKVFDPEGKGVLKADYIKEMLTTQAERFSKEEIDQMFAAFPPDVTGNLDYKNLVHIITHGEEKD
T1 sequence (P10587 84-789 limits assumed): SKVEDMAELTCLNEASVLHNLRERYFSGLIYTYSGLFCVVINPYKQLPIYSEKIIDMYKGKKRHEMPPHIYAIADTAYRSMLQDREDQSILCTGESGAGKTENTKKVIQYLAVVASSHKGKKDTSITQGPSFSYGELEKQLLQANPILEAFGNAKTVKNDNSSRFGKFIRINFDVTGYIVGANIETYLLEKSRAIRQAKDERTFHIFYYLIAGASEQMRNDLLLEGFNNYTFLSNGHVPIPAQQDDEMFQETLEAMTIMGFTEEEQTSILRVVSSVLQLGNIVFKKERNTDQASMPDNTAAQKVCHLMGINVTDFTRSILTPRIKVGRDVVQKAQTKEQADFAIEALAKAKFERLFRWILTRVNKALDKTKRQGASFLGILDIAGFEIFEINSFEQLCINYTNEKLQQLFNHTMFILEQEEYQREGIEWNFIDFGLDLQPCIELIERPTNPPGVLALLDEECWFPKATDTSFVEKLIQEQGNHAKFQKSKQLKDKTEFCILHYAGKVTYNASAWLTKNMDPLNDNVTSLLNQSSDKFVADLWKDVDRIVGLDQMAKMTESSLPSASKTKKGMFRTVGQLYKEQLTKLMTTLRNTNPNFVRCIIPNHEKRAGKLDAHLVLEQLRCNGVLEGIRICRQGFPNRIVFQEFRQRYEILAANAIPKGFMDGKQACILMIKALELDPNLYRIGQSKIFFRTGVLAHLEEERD
T1 sequence (P02607 whole entry partner, the tested form may be a part): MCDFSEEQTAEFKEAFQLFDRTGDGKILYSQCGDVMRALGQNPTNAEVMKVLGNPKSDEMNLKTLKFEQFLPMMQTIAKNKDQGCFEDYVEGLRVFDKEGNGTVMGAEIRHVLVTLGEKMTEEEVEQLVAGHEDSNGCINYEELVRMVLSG

Row | Compound | IC50 [1, 2] [nM] | IC50 [1, 3] [nM] | inhibition at 100 µM (smooth muscle myosin S1) [%] | inhibition at 100 µM (cardiac myosin SII) [%] | inhibition at 50 µM (smooth muscle myosin S1) [%] | Smooth muscle myosin S1 (Inhibition @ 100 μM) (smooth muscle myosin S1) [%] | Cardiac myosin SII (Inhibition @ 100 μM) (cardiac myosin SII) [%]
1 | O=c1ccc(-c2cnc(OCC(F)(F)F)nc2)nn1Cc1ccc2c(c1)C1CC1C2 (centres unmarked) [Compound 140] | < 2500 | 800 |  |  |  | 2 | −6
2 | O=c1ccc(-c2cnc(Oc3cncc(C(F)(F)F)c3)nc2)nn1Cc1ccc2c(c1)CCC2 [Compound 134] | < 2500 |  | 8 | 1 |  |  | 
3 | O=c1ccc(-c2cnc(OCCCF)nc2)nn1Cc1ccc2c(c1)CCC2 [Compound 71] | < 2500 |  |  | 21 |  |  | 
4 | O=c1ccc(-c2cnc(C3CC(F)(F)C3)nc2)nn1Cc1ccc2c(c1)CCC2 [Compound 127] | < 2500 |  | -6 | 8 |  |  | 
5 | O=c1ccc(-c2cnc(Oc3cncc(Cl)c3)nc2)nn1Cc1ccc2c(c1)CCC2 [Compound 132] | < 2500 | 400 |  | 1 |  |  | 
6 | O=c1ccc(-c2cnc(OCC(F)F)nc2)nn1Cc1cc(F)c2c(c1)CCC2 [Compound 74] | < 2500 | 290 | 5.3 | 15.8 |  |  | 
7 | O=c1ccc(-c2cnc(OCC(F)(F)F)nc2)nn1Cc1ccc2c(c1)CCCC2(F)F [Compound 89] | 2500 to 20000 |  | 17.6 | 13.7 |  |  | 
8 | O=c1ccc(-c2cnc(OC3CCOCC3)nc2)nn1Cc1ccc2c(c1)CC2 [Compound 95] | 2500 to 20000 |  | -2 | 2 |  |  | 
9 | O=c1ccc(-c2cnc(OC3CCC(F)(F)CC3)nc2)nn1Cc1ccc2c(c1)CC2 [Compound 96] | 2500 to 20000 |  |  | -9 |  |  | 
10 | O=c1ccc(-c2cnc(OCC(F)(F)F)nc2)nn1Cc1ccc2c(c1)CC1CC21 (centres unmarked) [Compound 161] | < 2500 | 500 |  |  |  |  | 5
11 | O=c1ccc(-c2cnc(OCCCCl)nc2)nn1Cc1ccc2c(c1)CC2 [Compound 70] | < 2500 |  |  | 18 |  |  | 
12 | O=C1CCc2c1cc(Cn1nc(-c3cnc(OCC(F)(F)F)nc3)ccc1=O)cc2C1CC1 [Compound 177] | 2500 to 20000 |  |  |  |  |  | 
13 | O=c1ccc(-c2cnc(OCC(F)(F)F)nc2)nn1Cc1ccc2c(c1)C=CC2 [Compound 137] | < 2500 | 300 | 11 |  |  |  | 
14 | O=C1CCc2c(Cl)cc(Cn3nc(-c4cnc(Oc5cncc(Cl)c5)nc4)ccc3=O)cc21 [Compound 175] | < 2500 | 530 |  |  |  |  | 
15 | O=c1ccc(-c2cnc(OCC(F)(F)F)nc2)nn1Cc1ccc2c(c1)CC=C2 [Compound 138] | < 2500 | 200 |  |  |  |  | 

Next, values leading:

Row | IC50 [1, 2] [nM] | IC50 [1, 3] [nM] | inhibition at 100 µM (smooth muscle myosin S1) [%] | inhibition at 100 µM (cardiac myosin SII) [%] | inhibition at 50 µM (smooth muscle myosin S1) [%] | Smooth muscle myosin S1 (Inhibition @ 100 μM) (smooth muscle myosin S1) [%] | Cardiac myosin SII (Inhibition @ 100 μM) (cardiac myosin SII) [%] | Compound
16 | < 2500 | 550 | -3 | 10.2 |  |  |  | O=c1ccc(-c2cnc(OCC(F)(F)F)nc2)nn1Cc1cc(F)c2c(c1)CCC2 [Compound 73]
17 | < 2500 |  | 3 | 3 |  |  |  | O=c1ccc(-c2cnc(Oc3cncc(F)c3)nc2)nn1Cc1ccc2c(c1)CCC2 [Compound 115]
18 | < 2500 |  | 5 | 1 |  |  |  | O=C1CCc2ccc(Cn3nc(-c4cnc(Oc5csc(C(F)(F)F)c5)nc4)ccc3=O)cc21 [Compound 155]
19 | < 2500 |  | 3 | 2 |  |  |  | O=c1ccc(-c2cnc(OCC(F)F)nc2)nn1Cc1ccc2c(c1)CCC2 [Compound 67]
20 | < 2500 | 700 | -3 | 14 |  |  |  | O=c1ccc(-c2cnc(O[C@H]3CCOC3)nc2)nn1Cc1ccc2c(c1)CCC2 [Compound 120]
21 | < 2500 | 200 | -0.9 | 4.5 |  |  |  | O=c1ccc(-c2cnc(OCC3(F)CC3)nc2)nn1Cc1ccc2c(c1)CCC2 [Compound 108]
22 | < 2500 | 500 |  | -17.8 | 9.3 |  |  | O=c1ccc(-c2cnc(OCC3CC3)nc2)nn1Cc1ccc2c(c1)CCC2 [Compound 80]
23 | < 2500 | 100 | -3.5 | 9.7 |  |  |  | O=c1ccc(-c2cnc(C3CCC3)nc2)nn1Cc1ccc2c(c1)CC2 [Compound 109]
24 | < 2500 | 700 | -14 | -16 |  |  |  | O=c1ccc(-c2cnc(OCC(F)(F)F)nc2)nn1Cc1ccc2c(c1)C(F)(F)CC2 [Compound 93]
25 | < 2500 |  |  | -3.8 | 20.2 |  |  | O=c1ccc(-c2cnc(OC3CC3)nc2)nn1Cc1ccc2c(c1)CCC2 [Compound 84]
26 | < 2500 | 400 | -2 | -5 |  |  |  | O=c1cc2c(nn1Cc1ccc3c(c1)CC3)-c1cnc(OCC(F)(F)F)nc1CC2 [Compound 102]
27 | < 2500 | 100 |  | 19 |  |  |  | O=c1ccc(-c2cnc(OCCCF)nc2)nn1Cc1ccc2c(c1)CC2 [Compound 69]
28 | < 2500 |  |  | -5.6 | 10.9 |  |  | O=c1ccc(-c2cnc(OCC3CC3(F)F)nc2)nn1Cc1ccc2c(c1)CCC2 (centres unmarked) [Compound 81]
29 | < 2500 |  | -5 |  |  |  |  | O=C1CCc2ccc(Cn3nc(-c4cnc(OCC(F)(F)F)nc4)ccc3=O)c(F)c21 [Compound 152]
30 | < 2500 |  | -9 | 2 |  |  |  | O=c1cc2c(nn1Cc1ccc3c(c1)CC3)-c1cnc(Oc3cncc(F)c3)nc1CC2 [Compound 112]
31 | < 2500 | 400 |  |  |  | 5 | 7 | O=c1ccc(-c2cnc(OCC(F)(F)F)nc2)nn1Cc1ccc2c(c1)C1CC1C2 (centres unmarked) [Compound 159]
